Results reported in patent US7323447B2, “Hepatitis C virus inhibitors” (Bristol-Myers Squibb Company, priority 2005, dated 2008).

Tests used:
[1] = target: T1, human neutrophil elastase (HNE) (Homo sapiens, UniProt P08246); experiment: Specificity assay, human neutrophil elastase; assay type: biochemical; settings: read-out: HLE activity in the specificity assays (IC50)
T1 construct: purchased Sigma or EMDbiosciences
T1 sequence (P08246 30-267): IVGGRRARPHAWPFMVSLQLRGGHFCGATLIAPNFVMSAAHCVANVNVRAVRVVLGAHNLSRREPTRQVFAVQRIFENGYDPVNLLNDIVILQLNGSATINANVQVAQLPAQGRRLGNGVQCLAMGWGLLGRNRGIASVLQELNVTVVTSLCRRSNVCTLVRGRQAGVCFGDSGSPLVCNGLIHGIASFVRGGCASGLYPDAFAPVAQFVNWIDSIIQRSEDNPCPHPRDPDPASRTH
Protocol: (§1) The specificities of compounds of the present disclosure were determined against a variety of serine proteases: human neutrophil elastase (HNE), porcine pancreatic elastase (PPE) and human pancreatic chymotrypsin and one cysteine protease: human liver cathepsin B. In all cases, a 96-well plate format protocol using colorimetric p-nitroaniline (pNA) substrate or fluorometric Amino-Methyl-Coumarin (AMC) substrate, specific for each enzyme was used as described previously (PCT Patent Application No. WO 00/09543) with some modifications. All enzymes were purchased from Sigma or EMDbiosciences while the substrates were from Bachem.
(§2) Each pNA assay included a 2 hours enzyme-inhibitor pre-incubation at room temperature followed by addition of substrate and hydrolysis to ˜15% conversion as measured on a Spectramax Pro microplate reader. The cathepsin B assay was initiated by adding substrate to a 10 min enzyme-inhibitor pre-incubation at room temperature, and the assay plate measured immediately using the Cytofluor Series 4000. Compound concentrations varied from 100 to 0.4 μM depending on their potency. […]
(§3) The percentage of inhibition was calculated using the formula: [1−((UVinh−UVblank)/(UVctl−UVblank))]×100 […]

[2] = test system: HCV replicon (Renilla luciferase) in HUH-7 cells; experiment: HCV replicon luciferase reporter assay; assay type: cell-based, Hepatitis C virus (strain 1b); settings: Huh-7, 96 h, 4 days
Description: As a secondary assay, EC50 determinations from the replicon FRET assay were confirmed in a replicon luciferase reporter assay. Utilization of a replicon luciferase reporter assay was first described by Krieger et al (Krieger N, Lohmann V, and Bartenschlager R, J. Virol. 75(10):4614-4624 (2001)). The replicon construct described for our FRET assay was modified by inserting cDNA encoding a humanized form of the Renilla luciferase gene and a linker sequence fused directly to the 3′-end of the luciferase gene. This insert was introduced into the replicon construct using an Asc1 restriction site located in core, directly upstream of the neomycin marker gene. The adaptive mutation at position 1179 (serine to isoleucine) was also introduced (Blight K J, Kolykhalov, A A, Rice, C M, Science 290(5498): 1972-1974). A stable cell line constitutively expressing this HCV replicon construct was generated as described above. […] Following 4 days in a 37° C./5% CO2 incubator, cells were analyzed for Renilla Luciferase activity using the Promega Dual-Glo Luciferase Assay System. […] Plates were read on a Packard TopCount NXT using a luminescence program.
The percentage inhibition was calculated using the formula below: […]
The values were graphed and analyzed using XLfit to obtain the EC50 value.

[3] = target: T2, human pancreatic chymotrypsin (Homo sapiens, UniProt P17538); experiment: Specificity assay, chymotrypsin; assay type: biochemical; settings: read-out: Chymotrypsin activity in the specificity assays (IC50)
T2 construct: purchased Sigma or EMDbiosciences
Protocol: as §1, §2, §3

T2 sequence (P17538 19-263): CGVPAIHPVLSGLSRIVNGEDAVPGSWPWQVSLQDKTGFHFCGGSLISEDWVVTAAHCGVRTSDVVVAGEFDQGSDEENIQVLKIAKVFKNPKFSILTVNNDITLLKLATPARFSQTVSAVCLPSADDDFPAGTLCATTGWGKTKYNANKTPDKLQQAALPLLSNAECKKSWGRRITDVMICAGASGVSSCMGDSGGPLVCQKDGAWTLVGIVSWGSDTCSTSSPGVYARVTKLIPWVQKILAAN

C=C[C@@H]1C[C@]1(NC(=O)[C@@H]1C[C@@H](OC(=O)N2Cc3cccc(F)c3C2)CN1C(=O)[C@@H](OC(=O)NC(C)(C)C)C(C)(C)C)C(=O)NS(=O)(=O)C1CC1 [Example 56Compound 56]
IC50 [1]: > 100 µM
EC50 [2]: 0.247 µM
IC50 [3]: > 100 µM
